According to patent US9376420B2 (YUHAN CORPORATION, priority 2012, dated 2016):

Target: T1, human LXRβ (Homo sapiens, UniProt P55055)
T1 construct: expressed in transfected cells; host or cells: HEK293 cells (ATCC CRL-1573), transient transfection with pFA-hLXRβ/GAL4 and pUAS
T1 sequence (P55055 222-460 limits assumed): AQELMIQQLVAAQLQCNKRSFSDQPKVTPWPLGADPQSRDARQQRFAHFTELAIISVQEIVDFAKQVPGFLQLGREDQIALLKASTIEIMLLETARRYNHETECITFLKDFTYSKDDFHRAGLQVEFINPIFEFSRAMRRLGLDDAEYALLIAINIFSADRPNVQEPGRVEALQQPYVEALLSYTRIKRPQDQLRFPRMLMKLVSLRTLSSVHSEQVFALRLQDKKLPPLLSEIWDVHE
Experiment: Assay for Transcriptional Activity of LXRβ (GAL4-hLXRβ LBD luciferase reporter, transient transfection)
Type: cell-based
Conditions: HEK293 cells transfected with pFA-hLXRβ/GAL4 and pUAS, 24 hours; for Emax: fold value in comparison with the control (DMSO-treated group); for EC50: increase of transcriptional activity of LXRβ, average of three independent tests
Method in brief: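 EC50 values, averaged over three independent runs, come from a four-parameter fit of 9-point half-log curves spanning 0.01–50 μM. Luciferase output was read in lysed HEK293 cells 24 h after dosing at 37 °C, following transient transfection with a GAL4-human LXRβ LBD fusion plus GAL4-responsive reporter.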

SMILES: O=C(c1cccs1)N1CC=C(c2cccc(C3CC(C(O)(C(F)(F)F)C(F)(F)F)=NN3c3ccccc3Cl)c2)CC1 (centres unmarked) [Example 234, 1-(2-chloro-phenyl)-5-{3-[1-(thiophene-2-carbonyl)-1,2,3,6-tetrahydropyridin-4-yl]-phenyl}-3-[di-(trifluoromethyl)-hydroxy-methyl]-4,5-dihydro-1H-pyrazole]
- Emax: 49 fold
- EC50: 13 nM

SMILES: O=C(c1ccccc1)N1CC=C(c2cccc(C3CC(C(O)(C(F)(F)F)C(F)(F)F)=NN3c3ccccc3Cl)c2)CC1 (centres unmarked) [Example 235, 5-[3-(1-benzoyl-1,2,3,6-tetrahydropyridin-4-yl)-phenyl]-1-(2-chloro-phenyl)-3-[di-(trifluoromethyl)-hydroxy-methyl]-4,5-dihydro-1H-pyrazole]
- Emax: 63 fold
- EC50: 31 nM

SMILES: O=C(Cc1ccccc1)N1CC=C(c2cccc(C3CC(C(O)(C(F)(F)F)C(F)(F)F)=NN3c3ccccc3Cl)c2)CC1 (centres unmarked) [Example 236, 1-(2-chloro-phenyl)-5-[3-(1-phenylacetyl-1,2,3,6-tetrahydropyridin-4-yl)-phenyl]-3-[di-(trifluoromethyl)-hydroxy-methyl]-4,5-dihydro-1H-pyrazole]
- Emax: 71 fold
- EC50: 49 nM

SMILES: O=C(c1ccc(Cl)cc1)N1CC=C(c2cccc(C3CC(C(O)(C(F)(F)F)C(F)(F)F)=NN3c3ccccc3Cl)c2)CC1 (centres unmarked) [Example 237, 5-{3-[1-(4-chloro-benzoyl)-1,2,3,6-tetrahydropyridin-4-yl]-phenyl}-1-(2-chloro-phenyl)-3-[di-(trifluoromethyl)-hydroxy-methyl]-4,5-dihydro-1H-pyrazole]
- Emax: 81 fold
- EC50: 119 nM

SMILES: CN(C)S(=O)(=O)N1CC=C(c2cccc(C3CC(C(O)(C(F)(F)F)C(F)(F)F)=NN3c3ccccc3Cl)c2)CC1 (centres unmarked) [Example 240, 1-(2-chloro-phenyl)-5-[3-(1-dimethylsulfamoyl-1,2,3,6-tetrahydropyridin-4-yl)-phenyl]-3-[di-(trifluoromethyl)-hydroxy-methyl]-4,5-dihydro-1H-pyrazole]
- Emax: 44 fold
- EC50: 157 nM

SMILES: CC(=O)c1ccccc1-c1ccc(C2CC(C(O)(C(F)(F)F)C(F)(F)F)=NN2c2ccccc2Cl)cc1 (centres unmarked) [Example 241, 5-(2′-acetyl-biphenyl-4-yl)-1-(2-chloro-phenyl)-3-[di-(trifluoromethyl)-hydroxy-methyl]-4,5-dihydro-1H-pyrazole]
- Emax: 47 fold
- EC50: 3350 nM

SMILES: COc1ccc(-c2ccc(C3CC(C(O)(C(F)(F)F)C(F)(F)F)=NN3c3ccccc3Cl)cc2)cc1 (centres unmarked) [Example 242, 1-(2-chloro-phenyl)-5-(4′-methoxy-biphenyl-4-yl)-3-[di-(trifluoromethyl)-hydroxy-methyl]-4,5-dihydro-1H-pyrazole]
- Emax: 89 fold
- EC50: 14100 nM

SMILES: CSc1ccc(-c2ccc(C3CC(C(O)(C(F)(F)F)C(F)(F)F)=NN3c3ccccc3Cl)cc2)cc1 (centres unmarked) [Example 243, 1-(2-chloro-phenyl)-5-[4′-(methylsulfanyl)-biphenyl-4-yl]-3-[di-(trifluoromethyl)-hydroxy-methyl]-4,5-dihydro-1H-pyrazole]
- Emax: 112 fold
- EC50: 617 nM

SMILES: CS(=O)(=O)c1ccc(-c2ccc(C3CC(C(O)(C(F)(F)F)C(F)(F)F)=NN3c3ccccc3Cl)cc2)cc1 (centres unmarked) [Example 244, 1-(2-chloro-phenyl)-5-[4′-(methanesulfonyl)-biphenyl-4-yl]-3-[di-(trifluoromethyl)-hydroxy-methyl]-4,5-dihydro-1H-pyrazole]
- Emax: 100 fold
- EC50: 298 nM

SMILES: COc1cccc(OC)c1-c1ccc(C2CC(C(O)(C(F)(F)F)C(F)(F)F)=NN2c2ccccc2Cl)cc1 (centres unmarked) [Example 245, 1-(2-chloro-phenyl)-5-(2′,6′-dimethoxy-biphenyl-4-yl)-3-[di-(trifluoromethyl)-hydroxy-methyl]-4,5-dihydro-1H-pyrazole]
- Emax: 57 fold
- EC50: 2430 nM

SMILES: OC(C1=NN(c2ccccc2Cl)C(c2ccc(-c3ccc(F)cc3)cc2)C1)(C(F)(F)F)C(F)(F)F (centres unmarked) [Example 246, 1-(2-chloro-phenyl)-5-(4′-fluoro-biphenyl-4-yl)-3-[di-(trifluoromethyl)-hydroxy-methyl]-4,5-dihydro-1H-pyrazole]
- Emax: 47 fold
- EC50: 1410 nM

SMILES: OC(C1=NN(c2ccccc2Cl)C(c2ccc(-c3ccc(C(F)(F)F)cc3)cc2)C1)(C(F)(F)F)C(F)(F)F (centres unmarked) [Example 247, 1-(2-chloro-phenyl)-5-[4′-(trifluoromethyl)-biphenyl-4-yl]-3-[di-(trifluoromethyl)-hydroxy-methyl]-4,5-dihydro-1H-pyrazole]
- Emax: 33 fold
- EC50: 2030 nM

SMILES: OC(C1=NN(c2ccccc2Cl)C(c2ccc(-c3cccc(OC(F)(F)F)c3)cc2)C1)(C(F)(F)F)C(F)(F)F (centres unmarked) [Example 248, 1-(2-chloro-phenyl)-5-[3′-(trifluoromethoxy)-biphenyl-4-yl]-3-[di-(trifluoromethyl)-hydroxy-methyl]-4,5-dihydro-1H-pyrazole]
- Emax: 43 fold
- EC50: 2480 nM

SMILES: Cc1ccccc1-c1ccc(C2CC(C(O)(C(F)(F)F)C(F)(F)F)=NN2c2ccccc2Cl)cc1 (centres unmarked) [Example 249, 1-(2-chloro-phenyl)-5-(2′-methyl-biphenyl-4-yl)-3-[di-(trifluoromethyl)-hydroxy-methyl]-4,5-dihydro-1H-pyrazole]
- Emax: 115 fold
- EC50: 784 nM

SMILES: Cc1ccc(-c2ccc(C3CC(C(O)(C(F)(F)F)C(F)(F)F)=NN3c3ccccc3Cl)cc2)cc1 (centres unmarked) [Example 250, 1-(2-chloro-phenyl)-5-(4′-methyl-biphenyl-4-yl)-3-[di-(trifluoromethyl)-hydroxy-methyl]-4,5-dihydro-1H-pyrazole]
- Emax: 107 fold
- EC50: 625 nM

SMILES: CCOc1cccc(-c2ccc(C3CC(C(O)(C(F)(F)F)C(F)(F)F)=NN3c3ccccc3Cl)cc2)c1 (centres unmarked) [Example 251, 1-(2-chloro-phenyl)-5-(3′-ethoxy-biphenyl-4-yl)-3-[di-(trifluoromethyl)-hydroxy-methyl]-4,5-dihydro-1H-pyrazole]
- Emax: 96 fold
- EC50: 1950 nM

SMILES: Oc1cccc(-c2ccc(C3CC(C(O)(C(F)(F)F)C(F)(F)F)=NN3c3ccccc3Cl)cc2)c1 (centres unmarked) [Example 252, 1-(2-chloro-phenyl)-5-(3′-hydroxy-biphenyl-4-yl)-3-[di-(trifluoromethyl)-hydroxy-methyl]-4,5-dihydro-1H-pyrazole]
- Emax: 62 fold
- EC50: 2350 nM

SMILES: Nc1cccc(-c2ccc(C3CC(C(O)(C(F)(F)F)C(F)(F)F)=NN3c3ccccc3Cl)cc2)c1 (centres unmarked) [Example 253, 5-(3′-amino-biphenyl-4-yl)-1-(2-chloro-phenyl)-3-[di-(trifluoromethyl)-hydroxy-methyl]-4,5-dihydro-1H-pyrazole]
- Emax: 55 fold
- EC50: 1070 nM

SMILES: CN(C)c1ccc(-c2ccc(C3CC(C(O)(C(F)(F)F)C(F)(F)F)=NN3c3ccccc3Cl)cc2)cc1 (centres unmarked) [Example 254, 1-(2-chloro-phenyl)-5-(4′-dimethylamino-biphenyl-4-yl)-3-[di-(trifluoromethyl)-hydroxy-methyl]-4,5-dihydro-1H-pyrazole]
- Emax: 50 fold
- EC50: 7060 nM

SMILES: COc1ccc(-c2ccc(C3CC(C(O)(C(F)(F)F)C(F)(F)F)=NN3c3ccccc3Cl)cc2)c(Cl)c1 (centres unmarked) [Example 255, 5-(2′-chloro-4′-methoxy-biphenyl-4-yl)-1-(2-chloro-phenyl)-3-[di-(trifluoromethyl)-hydroxy-methyl]-4,5-dihydro-1H-pyrazole]
- Emax: 58 fold
- EC50: 1080 nM

SMILES: OC(C1=NN(c2ccccc2Cl)C(c2ccc(-c3ccc(F)c(Cl)c3)cc2)C1)(C(F)(F)F)C(F)(F)F (centres unmarked) [Example 256, 5-(3′-chloro-4′-fluoro-biphenyl-4-yl)-1-(2-chloro-phenyl)-3-[di-(trifluoromethyl)-hydroxy-methyl]-4,5-dihydro-1H-pyrazole]
- Emax: 51 fold
- EC50: 729 nM

SMILES: OC(C1=NN(c2ccccc2Cl)C(c2ccc(-c3ccoc3)cc2)C1)(C(F)(F)F)C(F)(F)F (centres unmarked) [Example 257, 1-(2-chloro-phenyl)-5-(4-furan-3-yl-phenyl)-3-[di-(trifluoromethyl)-hydroxy-methyl]-4,5-dihydro-1H-pyrazole]
- Emax: 57 fold
- EC50: 1840 nM

SMILES: OC(C1=NN(c2ccccc2Cl)C(c2ccc(-c3cncnc3)cc2)C1)(C(F)(F)F)C(F)(F)F (centres unmarked) [Example 258, 1-(2-chloro-phenyl)-5-(4-pyrimidin-5-yl-phenyl)-3-[di-(trifluoromethyl)-hydroxy-methyl]-4,5-dihydro-1H-pyrazole]
- Emax: 62 fold
- EC50: 302 nM

SMILES: OC(C1=NN(c2ccccc2Cl)C(c2ccc(-c3cnc4ccccc4c3)cc2)C1)(C(F)(F)F)C(F)(F)F (centres unmarked) [Example 259, 1-(2-chloro-phenyl)-5-(4-quinolin-3-yl-phenyl)-3-[di-(trifluoromethyl)-hydroxy-methyl]-4,5-dihydro-1H-pyrazole]
- Emax: 57 fold
- EC50: 519 nM

SMILES: COc1ccc(-c2ccc(C3CC(C(O)(C(F)(F)F)C(F)(F)F)=NN3c3ccccc3Cl)cc2)cn1 (centres unmarked) [Example 260, 1-(2-chloro-phenyl)-5-[4-(6-methoxy-pyridin-3-yl)-phenyl]-3-[di-(trifluoromethyl)-hydroxy-methyl]-4,5-dihydro-1H-pyrazole]
- Emax: 47 fold
- EC50: 1870 nM
